Laboratory results: paper PMC3639044 (Molecular Biology of the Cell, 2013)

Target: T1, TbPLK^as (analogue-sensitive Trypanosoma brucei Polo-like kinase) (Trypanosoma brucei, UniProt Q57VI0, C57V/L118G)
T1 sequence (Q57VI0 1-768 C57V/L118G): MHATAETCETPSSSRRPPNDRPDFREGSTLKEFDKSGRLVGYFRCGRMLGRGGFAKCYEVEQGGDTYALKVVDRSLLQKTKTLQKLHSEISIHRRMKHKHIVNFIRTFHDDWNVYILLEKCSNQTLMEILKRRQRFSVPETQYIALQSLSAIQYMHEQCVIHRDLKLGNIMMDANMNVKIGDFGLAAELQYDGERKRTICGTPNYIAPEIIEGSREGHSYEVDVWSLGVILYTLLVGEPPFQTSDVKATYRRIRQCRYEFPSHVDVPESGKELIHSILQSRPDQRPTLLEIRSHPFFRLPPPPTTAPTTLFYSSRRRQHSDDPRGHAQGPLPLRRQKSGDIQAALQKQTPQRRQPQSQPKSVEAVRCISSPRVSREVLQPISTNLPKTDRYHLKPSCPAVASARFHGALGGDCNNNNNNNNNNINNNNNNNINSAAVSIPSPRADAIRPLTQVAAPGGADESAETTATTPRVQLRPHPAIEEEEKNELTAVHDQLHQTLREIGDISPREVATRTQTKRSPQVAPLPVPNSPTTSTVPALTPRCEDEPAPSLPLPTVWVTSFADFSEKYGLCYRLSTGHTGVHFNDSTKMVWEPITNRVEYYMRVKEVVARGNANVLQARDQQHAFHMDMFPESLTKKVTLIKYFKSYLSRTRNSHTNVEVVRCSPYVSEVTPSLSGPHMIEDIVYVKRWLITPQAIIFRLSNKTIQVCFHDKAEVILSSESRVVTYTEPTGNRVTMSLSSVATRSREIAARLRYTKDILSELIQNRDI
Assay type: biochemical

Cc1cccc(Cc2nn(C(C)(C)C)c3ncnc(N)c23)c1 [3MB-PP1]
IC50: ~0.25 µM
